How the values were obtained:
Type in all cases: cell-based
[1] = tested on: Bradykinin B1 agonist-induced secretion of IL-6; test: Bradykinin B1 agonist-induced secretion of IL-6 in human IMR-90 cells; details: 30 min compound, then 0.1 μM Lys-[Des-Arg9]Bradykinin and 0.1 μM Sar-[D-Phe8]-des-Arg9-Bradykinin for 5 hours
From the text: (§1) 2. Inhibitory Activity on Bradykinin B1 Agonist-Induced Secretion of IL-6 and IL-8 in Human IMR-90 Cells
(§2) The effect of the Compound Examples on secretion of the cytokine IL-6 and IL-8 has been investigated in the human foetal lung fibroblast IMR-90 cell line. Here the induction of the cytokine secretion was induced by the Bradykinin B1 agonists Lys-[Des-Arg9]Bradykinin (CAS 71800-36-7, Tocris Bioscience) and Sar-[D-Phe8]-des-Arg9-Bradykinin (CAS 126959-88-4, Tocris Bioscience) leading to the activation of the Bradykinin B1-driven signalling pathway. The inhibitory activity of the tested Compound Examples on Bradykinin B1 agonist-induced secretion of IL-6 and IL-8 is indicative for the compounds' prominent anti-inflammatory mode of action in kinin driven inflammation.
(§3) IMR-90 cells were cultured in Eagle's Minimum Essential Medium (EMEM) containing 2 mM L-glutamine, 1 g/L glucose, 1.5 g/L NaHCO3, 1 mM sodium pyruvate and non-essential amino acids (ATCC, 30-2003™) supplemented with 10% FBS (Biochrom, S0615) and 50 U/mL Penicillin, 50 μg/mL Streptomycin (PAA, P11-010). The assay was performed in EMEM and a cell density of […] IMR-90 cells/96-well. The Compound Examples have been serial diluted in 100% DMSO and evaluated at 8 different concentrations within the range of 3 nM and 10 μM and a final DMSO concentration of 0.4%. The IMR-90 cells have been incubated with the respective concentration of the compound for 30 min. The enhanced secretion of IL-6 and IL-8 was induced by the stimulation of these cells with 0.1 μM Lys-[Des-Arg9]Bradykinin (Tocris, catalogue no. 3225) and 0.1 μM Sar-[D-Phe8]-des-Arg9-Bradykinin (Tocris, catalogue no. 3230) for 5 hours at 37° C. and 5% CO2. Further, cells have been treated with Lys-[Des-Arg9]Bradykinin and Sar[D-Phe8]-des-Arg9-Bradykinin as neutral control and with 0.1% DMSO as inhibitor control. The amount of IL-6 and IL-8 in the supernatant was determined using the Human ProInflammatory Panel II (4-Plex) (MSD, K15025B) according to manufacturer's instruction. Briefly, supernatants were added onto assay plates and incubated at room temperature for 1-2 h with vigorous shaking at 600 rpm. Detection antibodies were then added onto the supernatants and incubated at room temperature for an additional 1-2 h with vigorous shaking at 600 rpm. Plates were washed three times with phosphate-buffered saline (PBS; 137 mM NaCl, 2.7 mM KC1, 6.5 mM Na2HP04, 1.7 mM KH2P04) containing 0.05% Tween-20 (Bio-Rad, 161-0781) and electrochemiluminescence detected using the MSD Sector Imager 6000 plate reader. The cell viability was measured using the CellTiter-Glo Luminescent Assay (Promega, G7571) following the manufacturers protocol. Briefly, the CellTiter-Glo Reagent was diluted with PBS (1:1) and added directly to cells. After incubation and shaking for 10 minutes luminescent signal was measured which is proportional to the amount of ATP present.
(§4) The effect of the compound on the amount of secreted cytokine has been calculated as 100/(measured cytokine concentration of neutral control-measured cytokine concentration of inhibitor control)*(measured cytokine concentration of compound dose-measured cytokine concentration of inhibitor control). IC50 values are determined using 4-parameter-fit.
(§5) The Compound Examples were tested in triplicates per plate and the inhibitory activity was determined as the relation between neutral and inhibitor control in percent. IC50 values were calculated using the 4-parameter logistic model.

[2] = target: T1, native human Bradykinin B1 receptor (Homo sapiens, UniProt P46663); test: Calcium flux assay (FLIPR) with IMR-90 human fibroblasts expressing Bradykinin B1 receptor after IL-1beta induction (hB1 IMR-90); details: IMR-90 human fibroblasts after IL-1beta induction, read-out: hB1 IMR90 IC50
T1 construct: which express native human Bradykinin B1 receptor after induction with human IL-1beta; Coriell Institute; host or cells: IMR-90 human foetal lung fibroblasts, induced with human IL-1beta
T1 sequence (P46663 1-353): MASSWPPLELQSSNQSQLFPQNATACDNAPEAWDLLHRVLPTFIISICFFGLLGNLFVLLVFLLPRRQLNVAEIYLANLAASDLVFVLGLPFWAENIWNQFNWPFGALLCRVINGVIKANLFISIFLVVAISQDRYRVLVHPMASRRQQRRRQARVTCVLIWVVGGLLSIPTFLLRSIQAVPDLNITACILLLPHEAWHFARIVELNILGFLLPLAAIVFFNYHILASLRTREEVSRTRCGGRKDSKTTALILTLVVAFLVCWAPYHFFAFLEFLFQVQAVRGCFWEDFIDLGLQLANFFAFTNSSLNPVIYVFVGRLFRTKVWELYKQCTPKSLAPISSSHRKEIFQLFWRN
How it was run: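 IMR-90 foetal lung fibroblasts induced with 0.35 ng/mL IL-1beta for 3 h to express native B1 receptor, then loaded with 2.5 μM Fluo-4/AM plus 2.5 mM probenecid for 2 h at 37 °C. Calcium flux read by FLIPR; compounds at 8 concentrations in triplicate, full inhibition defined by 20 μM Lys-(Des-Arg-Leu)-Bradykinin; IC50 derived.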

[3] = tested on: Bradykinin B1 agonist-induced secretion of IL-8; test: Bradykinin B1 agonist-induced secretion of IL-8 in human IMR-90 cells; details: 30 min compound, then 0.1 μM Lys-[Des-Arg9]Bradykinin and 0.1 μM Sar-[D-Phe8]-des-Arg9-Bradykinin for 5 hours
From the text: as §1, §2, §3, §4, §5

| IC50 [1] | IC50 [2] | IC50 [3] | SMILES |
| --- | --- | --- | --- |
| 149 nM | 72 nM | 245 nM | O=C(O)c1cc(NC(=O)C2(c3ccc(C(F)(F)F)cc3F)CC2)ccc1-c1cc2ccccc2s1 [Example 1, 2-(1-Benzothiophen-2-yl)-5-[({1-[2-fluoro-4-(trifluoromethyl)phenyl]cyclopropyl}carbonyl)amino]benzoic acid] |
| 113 nM | 44 nM | 303 nM | CCC(F)(F)c1ccc(-c2ccc(NC(=O)C3(c4ccc(C(F)(F)F)cc4F)CC3)cc2C(=O)O)cn1 [Example 2, 2-[6-(1,1-Difluoropropyl)pyridin-3-yl]-5-[({1-[2-fluoro-4-(trifluoromethyl)-phenyl]cyclopropyl}carbonyl)amino]benzoic acid] |
| 290 nM | 2700 nM | 483 nM | O=C(O)c1cc(NC(=O)C2(c3ccc(OC(F)(F)F)cc3F)CC2)ccc1-c1ccc(C(F)F)nc1 [Example 5, 2-[6-(Difluoromethyl)pyridin-3-yl]-5-[({1-[2-fluoro-4-(trifluoromethoxy)phenyl]cyclopropyl}carbonyl)amino]benzoic acid] |
| 443 nM | 550 nM | 205 nM | O=C(O)c1cc(NC(=O)C2(c3ccc(C(F)(F)F)cc3F)CC2)ccc1-c1ccc(C(F)(F)F)nc1 [Example 6, 5-[({1-[2-Fluoro-4-(trifluoromethyl)phenyl]cyclopropyl}carbonyl)amino]-2-[6-(trifluoromethyl)pyridin-3-yl]benzoic acid] |
| 600 nM | 21 nM | 489 nM | O=C(O)c1cc(NC(=O)C2(c3ccc(C(F)(F)F)cc3F)CC2)cc(F)c1-c1ccc(C(F)(F)F)nc1 [Example 29, 3-Fluoro-5-[({1-[2-fluoro-4-(trifluoromethyl)phenyl]cyclopropyl}carbonyl)amino]-2-[6-(trifluoromethyl)pyridin-3-yl]benzoic acid] |
| 70 nM | 4.1 nM | 85 nM | O=C(O)c1cc(NC(=O)C2(c3ccc(C(F)(F)F)cc3F)CC2)cc(F)c1-c1cnn(C2CCC2)c1 [Example 42, 2-(1-Cyclobutyl-1H-pyrazol-4-yl)-3-fluoro-5-[({1-[2-fluoro-4-(trifluoromethyl)phenyl]cyclopropyl}carbonyl)amino]benzoic acid] |

| SMILES | IC50 [1] | IC50 [2] | IC50 [3] |
| --- | --- | --- | --- |
| O=C(O)c1cc(NC(=O)C2(c3ccc(C(F)(F)F)cc3F)CC2)ccc1-c1cnn(C2CCC2)c1 [Example 3, 2-(1-Cyclobutyl-1H-pyrazol-4-yl)-5-[({1-[2-fluoro-4-(trifluoromethyl)phenyl]cyclopropyl}carbonyl)amino]benzoic acid] | 47 nM | 12 nM | 53 nM |

— patent publication US12023319B2, “Carboxylic acid aromatic amides” (priority 2016, dated 2024)
